The NIST ThermoML archive (doi:10.1016/j.fluid.2012.06.014)

Conditions: for viscosity / mass density: 101.33 kPa, Liquid; for viscosity: Capillary tube (Ostwald / Ubbelohde) method; for mass density: Vibrating tube method

CCCCCCn1cc[n+](C)c1.N#C[B-](C#N)(C#N)C#N [1-hexyl-3-methylimidazolium tetracyanoborate]
Conditions | mass density [kg/m3] | viscosity [mPa·s]
293.15 K | 993.4 | 66.61
298.15 K | 989.8 | 49.8
303.15 K | 986.2 | 38.92
308.15 K | 982.7 | 31.04
313.15 K | 979.1 | 25.2
318.15 K | 975.6 | 20.8
323.15 K | 972.1 | 17.41
328.14 K | 968.6 | 14.76
333.14 K | 965.2 | 12.66
338.14 K | 961.7 | 10.97
343.14 K | 958.3 | 9.584
348.14 K | 954.9 | 8.445
353.15 K | 951.5 | 7.497
358.14 K | 948.1 | 6.701
363.14 K | 944.8 | 6.026

Conditions | surface tension liquid-gas [mN/m]
298.15 K, Pendant drop shape | 41.1
